For the assay, the system named is soybean shoots. The assay is described as follows: Soybean transformation, selection of shoots with tembotrione. It counts as in vivo. The conditions noted are these: wild-type soybean shoots treated with selection marker. The text has this: Soybean transformation was achieved by using methods well known in the art, such as the one described using the Agrobacterium tumefaciens mediated transformation soybean half-seed explants using essentially the method described by Paz et al. (2006), Plant cell Rep. 25:206. Transformants were identified by using the HPPD inhibitor herbicide “tembotrione” as selection marker. The appearance of green shoots was observed, and documented as an indicator of tolerance to the HPPD inhibitor herbicide tembotrione.

Regarding `CS(=O)(=O)c1ccc(C(=O)C2C(=O)CCCC2=O)c(Cl)c1COCC(F)(F)F` [tembotrione, 2-[2-chloro-4-(methylsulfonyl)-3-[(2,2,2,-trifluoroethoxy)methyl]benzoyl]-1,3-cyclohexanedione], the appearance of shoots result was “entirely bleached”.
